Assay results published in PubChem BioAssay AID248 (DTP/NCI, 2004).
Values joined by “and” are separate entries in the source; they are usually repeats but may differ in a detail not shown here. Equal values may be shown once. Toxic doses and inconclusive results are not listed.

Test system: L1210 leukemia ip in BDF1 mice, survival T/C
Experiment: NCI In Vivo Anticancer Drug Screen. Data for tumor model L1210 Leukemia (intraperitoneal) in B6D2F1 (BDF1) mice
Settings: endpoint: mean survival time, higher = longer survival
Procedure, shortened: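 Tumor cells were implanted, animals were treated, and survival was followed. The result divides the treated measurement by the vehicle-control measurement.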

[1] = dose: 100.0 mg/kg/injection, schedule: Q04DX003 (ip), vehicle: Klucel (hydroxypropylcellulose) (HPC)
[2] = dose: 200.0 mg/kg/injection, schedule: Q04DX003 (ip), vehicle: Klucel (hydroxypropylcellulose) (HPC)
[3] = dose: 25.0 mg/kg/injection, schedule: Q01DX009 (ip), vehicle: saline
[4] = dose: 25.0 mg/kg/injection, schedule: Q04DX003 (ip), vehicle: saline
[5] = dose: 50.0 mg/kg/injection, schedule: Q01DX009 (ip), vehicle: saline
[6] = dose: 50.0 mg/kg/injection, schedule: Q04DX003 (ip), vehicle: saline
[7] = dose: 100.0 mg/kg/injection, schedule: Q01DX009 (ip), vehicle: saline
[8] = dose: 100.0 mg/kg/injection, schedule: Q04DX003 (ip), vehicle: saline
[9] = dose: 100.0 mg/kg/injection, schedule: Q01DX009 (ip), vehicle: Klucel (hydroxypropylcellulose) (HPC)
[10] = dose: 200.0 mg/kg/injection, schedule: Q01DX009 (ip), vehicle: Klucel (hydroxypropylcellulose) (HPC)
[11] = dose: 400.0 mg/kg/injection, schedule: Q01DX009 (ip), vehicle: Klucel (hydroxypropylcellulose) (HPC)
[12] = dose: 400.0 mg/kg/injection, schedule: Q04DX003 (ip), vehicle: Klucel (hydroxypropylcellulose) (HPC)
[13] = dose: 100.0 mg/kg/injection, schedule: Q04DX003 (ip), vehicle: saline with Tween-80
[14] = dose: 200.0 mg/kg/injection, schedule: Q04DX003 (ip), vehicle: saline with Tween-80
[15] = dose: 400.0 mg/kg/injection, schedule: Q04DX003 (ip), vehicle: saline with Tween-80
[16] = dose: 100.0 mg/kg/injection, schedule: Q01DX009 (ip), vehicle: saline with Tween-80
[17] = dose: 200.0 mg/kg/injection, schedule: Q01DX009 (ip), vehicle: saline with Tween-80
[18] = dose: 400.0 mg/kg/injection, schedule: Q01DX009 (ip), vehicle: saline with Tween-80

O=C(Nc1cccc(Cl)c1)c1cc([N+](=O)[O-])ccc1O
T/C (dose: 5.0 mg/kg/injection, schedule: Q01DX001 (ip), vehicle: other): 104 % of control
T/C (dose: 10.0 mg/kg/injection, schedule: Q01DX001 (ip), vehicle: other): 104 % of control
T/C (dose: 10.0 mg/kg/injection, schedule: Q02DX010 (ip), vehicle: carboxymethylcellulose (CMC)): 105 % of control
T/C (dose: 20.0 mg/kg/injection, schedule: Q01DX001 (ip), vehicle: other): 104 % of control
T/C (dose: 20.0 mg/kg/injection, schedule: Q02DX010 (ip), vehicle: carboxymethylcellulose (CMC)): 109 % of control
T/C (dose: 40.0 mg/kg/injection, schedule: Q01DX001 (ip), vehicle: other): 101 % of control
T/C (dose: 40.0 mg/kg/injection, schedule: Q02DX010 (ip), vehicle: carboxymethylcellulose (CMC)): 95 % of control
T/C (dose: 80.0 mg/kg/injection, schedule: Q01DX001 (ip), vehicle: other): 95 % of control
T/C (dose: 80.0 mg/kg/injection, schedule: Q02DX010 (ip), vehicle: carboxymethylcellulose (CMC)): 88 % of control
T/C (dose: 100.0 mg/kg/injection, schedule: Q01DX001 (ip), vehicle: other): 86 % of control
T/C (dose: 200.0 mg/kg/injection, schedule: Q01DX001 (ip), vehicle: other): 97 % of control
T/C (dose: 400.0 mg/kg/injection, schedule: Q01DX001 (ip), vehicle: other): 114 % of control

CCCCCS(=O)(=O)N1CCCC1
T/C (dose: 100.0 mg/kg/injection, schedule: Q04DX002 (ip), vehicle: Klucel (hydroxypropylcellulose) (HPC)): 107 % of control
T/C (dose: 200.0 mg/kg/injection, schedule: Q04DX002 (ip), vehicle: Klucel (hydroxypropylcellulose) (HPC)): 103 % of control
T/C (dose: 400.0 mg/kg/injection, schedule: Q04DX002 (ip), vehicle: Klucel (hydroxypropylcellulose) (HPC)): 111 % of control

CC1C(C(C)(C)C)N1C (centres undefined)
T/C [1]: 108 % of control
T/C [2]: 110 % of control

C[S+](C)Cc1ccc(C(=O)Oc2ccc([N+](=O)[O-])cc2)cc1
T/C [3]: 100 % of control
T/C [4]: 97 % of control
T/C [5]: 98 % of control
T/C [6]: 100 % of control
T/C [7]: 96 % of control and 102 % of control
T/C [8]: 100 % of control and 101 % of control
T/C (dose: 200.0 mg/kg/injection, schedule: Q01DX009 (ip), vehicle: saline): 87 % of control

COc1cc2c(cc1OC)C1CNC(=O)C1C(c1ccccc1)C2 (centres undefined)
T/C (dose: 50.0 mg/kg/injection, schedule: Q04DX003 (ip), vehicle: Klucel (hydroxypropylcellulose) (HPC)): 103 % of control
T/C [9]: 100 % of control
T/C [1]: 98 % of control
T/C [10]: 102 % of control
T/C [2]: 95 % of control
T/C [11]: 94 % of control
T/C [12]: 98 % of control

COc1ccccc1C(=O)NS(=O)(=O)c1ccc(Cl)cc1
T/C (dose: 100.0 mg/kg/injection, schedule: Q04DX003 (ip), vehicle: acetone): 113 % of control
T/C (dose: 200.0 mg/kg/injection, schedule: Q04DX003 (ip), vehicle: acetone): 101 % of control
T/C (dose: 400.0 mg/kg/injection, schedule: Q04DX003 (ip), vehicle: acetone): 96 % of control

C/C(=N\N=C(/C)c1cccc(Br)c1)c1cccc(Br)c1
T/C [1]: 92 % of control
T/C [2]: 90 % of control
T/C [12]: 95 % of control

CCOC(=O)Nc1cccc(C)c1C
T/C [9]: 100 % of control
T/C [10]: 107 % of control
T/C [11]: 104 % of control

N#C/C(=C/c1c(Cl)cccc1Cl)C(N)=O
T/C (dose: 75.0 mg/kg/injection, schedule: Q01DX001 (ip), vehicle: saline): 93 % of control

Cc1cc(N(CCCOS(C)(=O)=O)CCCOS(C)(=O)=O)ccc1C=Nc1cccc(Cl)c1
T/C [13]: 97 % of control
T/C [14]: 98 % of control
T/C [15]: 92 % of control

CC(=O)OCC1OC(n2cnc3c(=S)nc(N)[nH]c32)C(OC(C)=O)C1OC(C)=O (centres undefined)
T/C (dose: 1.6 mg/kg/injection, schedule: Q01DX Z (ip), vehicle: carboxymethylcellulose (CMC)): 106 % of control
T/C (dose: 5.0 mg/kg/injection, schedule: Q01DX Z (ip), vehicle: carboxymethylcellulose (CMC)): 162 % of control
T/C (dose: 6.25 mg/kg/injection, schedule: Q01DX Z (oral), vehicle: other): 94 % of control
T/C (dose: 7.5 mg/kg/injection, schedule: Q01DX Z (ip), vehicle: carboxymethylcellulose (CMC)): 162 % of control
T/C (dose: 11.2 mg/kg/injection, schedule: Q01DX Z (ip), vehicle: carboxymethylcellulose (CMC)): 176 % of control
T/C (dose: 12.5 mg/kg/injection, schedule: Q01DX Z (oral), vehicle: other): 106 % of control
T/C (dose: 25.0 mg/kg/injection, schedule: Q01DX Z (oral), vehicle: other): 105 % of control
T/C (dose: 44.0 mg/kg/injection, schedule: Q01DX Z (ip), vehicle: carboxymethylcellulose (CMC)): 86 % of control
T/C (dose: 50.0 mg/kg/injection, schedule: Q01DX001 (ip), vehicle: saline): 100 % of control
T/C (dose: 50.0 mg/kg/injection, schedule: Q01DX Z (oral), vehicle: other): 122 % of control
T/C (dose: 100.0 mg/kg/injection, schedule: Q01DX001 (ip), vehicle: saline): 123 % of control
T/C (dose: 150.0 mg/kg/injection, schedule: Q01DX015 (oral), vehicle: other): 120 % of control
T/C (dose: 200.0 mg/kg/injection, schedule: Q01DX001 (ip), vehicle: saline): 103 % of control
T/C (dose: 200.0 mg/kg/injection, schedule: Q01DX015 (oral), vehicle: other): 97 % of control
T/C (dose: 250.0 mg/kg/injection, schedule: Q01DX015 (oral), vehicle: other): 94 % of control

CC1(CCN2CCC3(CC2)C(=O)NCN3c2ccccc2)Oc2ccccc2O1
T/C [1]: 104 % of control
T/C [2]: 111 % of control
T/C [12]: 93 % of control

COC(=O)c1cc([N+](=O)[O-])cc([N+](=O)[O-])c1O
T/C (dose: 50.0 mg/kg/injection, schedule: Q01DX009 (ip), vehicle: Klucel (hydroxypropylcellulose) (HPC)): 87 % of control
T/C (dose: 100.0 mg/kg/injection, schedule: Q04DX002 (ip), vehicle: saline with Tween-80): 100 % of control
T/C (dose: 200.0 mg/kg/injection, schedule: Q04DX002 (ip), vehicle: saline with Tween-80): 105 % of control

CC(N)Cc1cn(C)c2ccccc12 (centres undefined)
T/C (dose: 6.25 mg/kg/injection, schedule: Q01DX009 (ip), vehicle: saline): 96 % of control
T/C (dose: 12.5 mg/kg/injection, schedule: Q01DX009 (ip), vehicle: saline): 105 % of control
T/C [3]: 103 % of control
T/C [4]: 101 % of control
T/C [5]: 105 % of control
T/C [6]: 95 % of control
T/C [7]: 97 % of control
T/C [8]: 104 % of control

COC1CCC2CC3(CCC2(C)C1O)OCCO3 (centres undefined)
T/C (dose: 100.0 mg/kg/injection, schedule: Q01DX001 (ip), vehicle: carboxymethylcellulose (CMC)): 100 % of control
T/C (dose: 200.0 mg/kg/injection, schedule: Q01DX001 (ip), vehicle: carboxymethylcellulose (CMC)): 105 % of control
T/C (dose: 400.0 mg/kg/injection, schedule: Q01DX001 (ip), vehicle: carboxymethylcellulose (CMC)): 97 % of control

CN1CN(c2ccccc2)C2(CCN(Cc3nc4ccccc4[nH]3)CC2)C1=O
T/C (dose: 75.0 mg/kg/injection, schedule: Q04DX003 (ip), vehicle: Klucel (hydroxypropylcellulose) (HPC)): 100 % of control
T/C (dose: 150.0 mg/kg/injection, schedule: Q04DX003 (ip), vehicle: Klucel (hydroxypropylcellulose) (HPC)): 107 % of control
T/C (dose: 300.0 mg/kg/injection, schedule: Q04DX003 (ip), vehicle: Klucel (hydroxypropylcellulose) (HPC)): 105 % of control

COc1cccc(NC(=O)NCc2ccco2)c1
T/C [9]: 106 % of control
T/C [10]: 108 % of control
T/C [11]: 103 % of control

CC1C2C=CC1C(c1c3ccc(=O)cc-3oc3cc(O)ccc13)C2C(=O)O (centres undefined)
T/C [16]: 98 % of control
T/C [17]: 104 % of control
T/C [18]: 104 % of control

Cc1ccc(C2(C#N)CC2)cc1
T/C [16]: 98 % of control
T/C [13]: 108 % of control
T/C [17]: 98 % of control
T/C [14]: 104 % of control
T/C [18]: 112 % of control
T/C [15]: 104 % of control

Cc1ccccc1C(O)c1ccccc1Cl (centres undefined)
T/C (dose: 100.0 mg/kg/injection, schedule: Q01DX001 (ip), vehicle: saline with Tween-80): 109 % of control
T/C (dose: 200.0 mg/kg/injection, schedule: Q01DX001 (ip), vehicle: saline with Tween-80): 102 % of control
T/C (dose: 400.0 mg/kg/injection, schedule: Q01DX001 (ip), vehicle: saline with Tween-80): 94 % of control
